Reference: patent publication EP2774915A1, “New derivatives of resveratrol” (Mattarei, Andrea, priority 2013, dated 2014)
Like-named read-outs stand apart in the source and are kept apart here.

How the values were obtained:
[1] = pH 5
Description: (§1) Solubility in aqueous media. A calibration curve is constructed via HPLC analysis of a series of solutions of the compound of interest at known concentrations in a suitable solvent. A known amount (excess) of solid compound is placed in a 20-mL vial to which a 5 mL aliquot of 1 mM acetate buffer at pH 5 is then added. The contents are stirred at 25°C for 24 hours. After a 4-hour decantation period, 1 mL of the supernatant is filtered through a PTFE 0.45 µm filter, diluted with 2 v/v of acetonitrile and analyzed by HPLC. The entire procedure is repeated twice with the same sample, at 24-hour intervals, to verify the invariance of the result.

[2] = Stability to oxidation: reaction with DPPH radical, absorbance at 520 nm; assay type: physicochemical; conditions: 20 nmoles of DPPH in methanol, absorbance at 520 nm after 40 min (Fig. 5)
Description: At time zero, 20 nmoles of DPPH and the specified amount of resveratrol or of its derivative were mixed in methanol. Absorbance was measured after 40 min.
The susceptibility to oxidation can be assessed by studying c) the reaction with the 1,1-diphenyl-2-picrylhydrazyl (DPPH) radical.
DPPH is a stable free radical with an absorbance maximum at 520 nm (purple). Upon reaction with polyphenols it is converted to DPPHH (yellow) and this change of colour is an indication of the extent of the reaction which has taken place. The assays were conducted using 96-well plates following Fukumoto and Mazza (2000), measuring absorbance with a Tecan Infinite 200 plate reader.

[3] = Solubility in aqueous media (excess solid stirred in buffer, HPLC of filtered supernatant); conditions: 1 mM acetate buffer at pH 5, 25°C, 24 hours stirring
Description: as §1

SMILES	Solubility in water [1]	reaction with DPPH [2]	further results
CCCCCCCCC=CCCCCCCCCNC(=O)Oc1ccc(C=Cc2cc(OC(=O)NCCCCCCCCC=CCCCCCCCC)cc(OC(=O)NCCCCCCCCC=CCCCCCCCC)c2)cc1 [Resv(Oleyl-C)3, 3,4',5-tri-[N-(octadec-9-enyl)-carbamoyl]-resveratrol]	below detection limit		
O=C(NC(Cc1ccccc1)C(=O)O)Oc1ccc(C=Cc2cc(OC(=O)NC(Cc3ccccc3)C(=O)O)cc(OC(=O)NC(Cc3ccccc3)C(=O)O)c2)cc1 (centres unmarked) [Resv(HOPhe-C)3, 3,4',5-tri-[N-(phenylalanyl)-carbamoyl]-resveratrol]	below detection limit		
COCCOCCOCCNC(=O)Oc1ccc(C=Cc2cc(OC(=O)NCCOCCOCCOC)cc(OC(=O)NCCOCCOCCOC)c2)cc1 [Resv(TGME-C)3, 3,4',5-tri-[N-methoxytri-(ethyleneglycol)-carbamoyl] resveratrol]		does not react at all with DPPH	
Oc1ccc(C=Cc2cc(O)cc(O)c2)cc1 [resveratrol]		stoichiometric oxidation	
CNC(=O)Oc1ccc(C=Cc2cc(OC(=O)NC)cc(OC(=O)NC)c2)cc1 [Resv(Me-C)3, 3,4',5-tri-[N-methyl-carbamoyl]-resveratrol]			Solubility in water [3]: below detection limit
